The values that follow come from patent US11044909B2, “Composition for destruction of microalgae or sphaerocarpus” (CUREARTH, INC., priority 2015, dated 2021).

The test system of one data set is Microcystis aeruginosa. The experiment in a line: Microalgae-destroying effect by IC50 measurement (cell count). The note with it: Microcystis aeruginosa, 120 h, read-out: IC50 Microcystis aeruginosa. Format: cell-based. As to the method:
(§1) The IC50 value was obtained according to Equation 1:
(§2) The algicidal activity of each compound was calculated using Equation 2: Algicidal activity (%)=(1−Tt/Ct)×100 <Equation 2>
(§3) In Equation 2, T (treatment group) and C (control group) represent algae densities in cell counts when each compound was inoculated and was not inoculated, respectively, and t represents the number of days which had passed after the inoculation.
(§4) First, the above-listed microalgae were cultured in a culture flask at a temperature of about 20° C. under light conditions, and a medium used was Guillard's f/2 medium which is commonly used in the art (Guillard R R L and Keller M D. Culturing dinoflagellates. In: Spector (Ed.), Dinoflagellates. New York: Academic Press; 1984, 391442).
Microcystis aeruginosa was treated with Compounds 1 to 3, 5 to 10, 12, 13, 17 to 43, and 45 to 51 synthesized in Examples 1 to 3, 5 to 10, 12, 13, 17 to 43, and 45 to 51 at concentrations of 0.1 uM, 0.2 uM, 0.5 uM, 1 uM, 2 uM, 5 uM, 10 uM, 15 uM, and 20 uM and then cultured for 5 days.
(§5) Control groups were not treated with any of the compounds synthesized in the above-identified examples. After incubation, the number of cells of each alga was counted using a Burker-Tukr hemocytometer, and IC50 values were calculated according to Equation 1 using SigmaPlot Version 11.2 software (Standard curve: the four-parameter logistic curve).

In data set [1] the test system is Chattonella Marina. Described as above. In kind it is cell-based. The note with it: 24 h, read-out: IC50 Chattonella Marina. As to the method: (§6) The IC50 value was obtained according to Equation 1: […]
as §4
(§7) After the cultured microalgae were transferred onto a 24-well plate, Chattonella Marina, Heterosigma circularisquama, Cochlodinium Polykrikoides, and Heterosigma akashiwo, which were in an exponential growth phase, were treated with Compounds 1 to 3, 5 to 10, 12, 13, 17 to 43, and 45 to 47 synthesized in Examples 1 to 3, 5 to 10, 12, 13, 17 to 43, and 45 to 47 at concentrations of 0.1 uM, 0.2 uM, 0.5 uM, 1 uM, 2 uM, and 5 uM, and then cultured for 1 day.
as §5

The test system of data set [2] is Heterocapsa Circularisquama. The description is as above. Format: cell-based. The note with it: 24 h. Here is the method:
as §6, §4, §7, §5

Data set [3] has as its system Heterosigma Akashiwo. The description is as above. In kind it is cell-based. The conditions noted are these: 24 h, read-out: IC50 Heterosigma Akashiwo. As to the method: as §6, §4, §7, §5
The subject of data set [4] is Cochlodinium Polykrikoides. The description is as above. Format: cell-based. The note with it: Margalefidinium polykrikoides, 24 h, read-out: IC50 Cochlodinium Polykrikoides. Here is the method: as §1, §2, §3, §4, §7, §5
For data set [5], the system named is Heterosigma Circularisquama. The experiment in a line: Microalgae-destroying effect by surviving cells rate measurement. Format: cell-based. The conditions noted are these: 1 μM, about 6 hours. Here is the method:
(§8) To investigate a microalgae-destroying effect of Compound 35 synthesized in Example 35, culture solutions of Chattonella Marina, Heterosigma Circularisquama, Cochlodinium Polykrikoides, and Heterosigma akashiwo (40 mL, initial population number: about 15×10^4 to 18×10^4/mL) were each treated with a solution of Compound 35 (1 μM in dimethyl sulfoxide (DMSO) and f/2 medium) for about 6 hours. A microalgae culture solution not treated with a solution of Compound 35 was used as a control group. After the treatment, viable cell ratios of the microalgae with respect to time were measured, and it was also observed whether the microalgae were destroyed.

The subject of data set [6] is Cochlodinium Polykrikoides. Described as above. Format: cell-based. The conditions noted are these: 1 μM, about 6 hours. Here is the method: as §8
Data set [7] has as its system Chattonella Marina. The data set is described as above. In kind it is cell-based. The conditions noted are these: 1 μM, about 6 hours. As to the method:
as §8

The subject of data set [8] is Heterosigma Akashiwo. The data set is described as above. Format: cell-based. The note with it: 1 μM, about 6 hours. As to the method: as §8
In the next data set the test system is Danio rerio. The experiment in a line: Acute toxicity test on Danio rerio. In kind it is in vivo. The conditions noted are these: 15 μM, 2 weeks; FIG. 5. As to the method:
An acute toxicity test on Danio rerio (zebrafish) was performed using compounds 33 and 35 synthesized in Examples 33 and 35. In particular, 2-cm-sized Danio rerio, which had been 3 months since hatching, was acclimatized for 14 days before the start of the experiment. The Danio rerio were feed twice a day during the acclimation period. Next, solutions of Compounds 33 and […] were prepared at concentrations of 0, 5, 10, 15, 20, 25, and 30 μM. Culture solutions of the Danio rerio (10 L, initial population number: 10 zebrafish in total (1 zebrafish/L)) were treated for 2 weeks with the solutions of Compounds 33 and 35 at different concentrations to thereby perform the acute toxicity test.

Setting [9] is: Table 1, 3,4-dichlorobenzylamines, 0.1-20 uM, cultured 5 days.
The mark [10] stands for this setting: Table 1, 3,4-dichlorobenzylamines, 0.1-5 uM, cultured 1 day.
Setting [11] is: Table 1, 3,4-dichlorobenzylamines, 0.1-5 uM, cultured 1 day, read-out: IC50 Heterocapsa Circularisquama.
Where [12] appears, read: Table 2, 0.1-5 uM, cultured 1 day.
Where [13] appears, read: Table 2, 0.1-5 uM, cultured 1 day, read-out: IC50 Heterocapsa Circulariaquama.

The structures appear in SMILES notation. Like-named read-outs stand apart in the source and are kept apart here.

What is called IC50 is the midpoint of a concentration-inhibition curve. On to `Clc1ccc(CNCc2ccccc2)cc1Cl` [Compound 29, Benzyl-(3,4-dichloro-benzyl)-amine], for which the IC50 in the data set with Microcystis aeruginosa (setting [9]) is 14400 nM; with Chattonella Marina [1] (setting [10]), 3460 nM; in data set [2] (setting [11]) it was 3230 nM; with Heterosigma Akashiwo [3] (setting [10]), 600 nM; in [4] (setting [10]) it was 2750 nM.
In the case of `Clc1ccc(CNCCc2ccncc2)cc1Cl` [Compound 30, (3,4-Dichloro-benzyl)-(2-pyridin-4-yl-ethyl)-amine], the IC50 was greater than 20000 nM in the data set with Microcystis aeruginosa (setting [9]); 3470 nM in the data set on Chattonella Marina [1] (setting [10]); 1910 nM in data set [2] (setting [11]); 420 nM with Heterosigma Akashiwo [3] (setting [10]); 2700 nM in data set [4] (setting [10]).
The like results for `Clc1ccc(CNCCc2cccnc2)cc1Cl` [Compound 31, (3,4-Dichloro-benzyl)-(2-pyridin-3-yl-ethyl)-amine] were, in that order, greater than 20000 nM, 3500 nM, 1600 nM, 590 nM and 424 nM.
The like results for `Clc1ccc(CNCCc2ccccn2)cc1Cl` [Compound 32, (3,4-Dichloro-benzyl)-(2-pyridin-2-yl-ethyl)-amine] were, in that order, 19600 nM, 310 nM, 1050 nM, 180 nM and 500 nM.
The like results for `Clc1ccc(CNCCc2ccccc2)cc1Cl` [Compound 34, (3,4-Dichloro-benzyl)-phenethyl-amine] were, in that order, 5970 nM, 460 nM, 1500 nM, 120 nM and 875 nM.
For the molecule `Clc1ccc(CNC2CCCCC2)cc1Cl` [Compound 35, Cyclohexyl-(3,4-dichloro-benzyl)-amine], the “viable cell ratio with respect to time” value (in data set [5] (FIG. 1); in [6] (FIG. 1); with Chattonella Marina [7] (FIG. 1); in the data set on Heterosigma Akashiwo [8] (FIG. 1)) was “decreased with time” each time. The “whether the microalgae were destroyed (microscope images)” value (in data set [5] (FIG. 2); in [6] (FIG. 2); in the data set with Chattonella Marina [7] (FIG. 2); in the data set on Heterosigma Akashiwo [8] (FIG. 2)) was “destroyed” throughout. Moreover, the IC50 with Microcystis aeruginosa (setting [9]) was 14600 nM; in the data set with Chattonella Marina [1] (setting [10]), 290 nM; in [2] (setting [11]), 1140 nM; with Heterosigma Akashiwo [3] (setting [10]), 218 nM; in [4] (setting [10]), 150 nM. The survival ratio in the data set with Danio rerio is 100%.
Take `Clc1ccc(CNC2CCCCCC2)cc1Cl` [Compound 36, Cycloheptyl-(3,4-dichloro-benzyl)-amine]: the IC50 stood at 3090 nM in the data set on Microcystis aeruginosa (setting [9]); 250 nM in the data set on Chattonella Marina [1] (setting [10]); 690 nM in data set [2] (setting [11]); 263 nM with Heterosigma Akashiwo [3] (setting [10]); 150 nM in data set [4] (setting [10]).
For the molecule `c1ccc(CNCCc2ccccn2)cc1` [Compound 37, Benzyl-(2-pyridin-2-yl-ethyl)-amine], the IC50 with Microcystis aeruginosa is greater than 5000 nM; in the data set with Chattonella Marina [1] (setting [12]), 340 nM; in data set [2] (setting [13]), greater than 5000 nM; with Heterosigma Akashiwo [3] (setting [12]) it was 130 nM; in [4] (setting [12]), greater than 5000 nM.
With `Oc1ccccc1CNCCc1ccccn1` [Compound 38, 2-[(2-Pyridin-2-yl-ethylamino)-methyl]-phenol], the IC50 with Microcystis aeruginosa is greater than 5000 nM; in the data set with Chattonella Marina [1] (setting [12]) it was 910 nM; in data set [2] (setting [13]) it was greater than 5000 nM; in the data set on Heterosigma Akashiwo [3] (setting [12]), 130 nM; in data set [4] (setting [12]), greater than 5000 nM.
Take `Brc1ccccc1CNCCc1ccccn1` [Compound 39, (2-Bromo-benzyl)-(2-pyridin-2-yl-ethyl)-amine]: the IC50 is greater than 5000 nM with Microcystis aeruginosa; 1120 nM with Chattonella Marina [1]; greater than 5000 nM in data set [2] (read-out: IC50 Heterocapsa Circulariaquama); 280 nM in the data set with Heterosigma Akashiwo [3]; greater than 5000 nM in data set [4].
Turning to `Brc1cccc(CNCCc2ccccn2)c1` [Compound 40, (3-Bromo-benzyl)-(2-pyridin-2-yl-ethyl)-amine], the IC50 in the data set on Microcystis aeruginosa is greater than 5000 nM; in the data set on Chattonella Marina [1] (setting [12]), 740 nM; in data set [2] (setting [13]), greater than 5000 nM; in the data set on Heterosigma Akashiwo [3] (setting [12]), 570 nM; in data set [4] (setting [12]), 3500 nM.
On to `Brc1ccc(CNCCc2ccccn2)cc1` [Compound 41, (4-Bromo-benzyl)-(2-pyridin-2-yl-ethyl)-amine], for which the IC50 is greater than 5000 nM in the data set on Microcystis aeruginosa; 720 nM in the data set on Chattonella Marina [1] (setting [12]); greater than 5000 nM in [2] (setting [13]); 140 nM in the data set on Heterosigma Akashiwo [3] (setting [12]); greater than 5000 nM in data set [4] (setting [12]).
Take `c1ccc(CNC2CCCCCC2)cc1` [Compound 42, Benzyl-cycloheptyl-amine]: the IC50 was greater than 5000 nM in the data set on Microcystis aeruginosa; 520 nM with Chattonella Marina [1] (setting [12]); greater than 5000 nM in data set [2] (setting [13]); 150 nM in the data set on Heterosigma Akashiwo [3] (setting [12]); greater than 5000 nM in data set [4] (setting [12]).
For the molecule `c1ccc(CNC2CCCCC2)cc1` [Compound 43, Benzyl-cyclohexyl-amine], the IC50 was greater than 5000 nM in the data set on Microcystis aeruginosa; greater than 5000 nM with Chattonella Marina [1] (setting [12]); greater than 5000 nM in [2] (setting [13]); 670 nM in the data set with Heterosigma Akashiwo [3] (setting [12]); greater than 5000 nM in data set [4] (setting [12]).
Consider `Clc1ccc(CNC2CCc3ccccc32)cc1Cl` (stereo not shown) [Compound 45, (3,4-Dichloro-benzyl)-indan-1-yl-amine], for which the IC50 was greater than 20000 nM in the data set on Microcystis aeruginosa (setting [9]); 1440 nM with Chattonella Marina [1] (setting [10]); 2000 nM in [2] (setting [11]); 1140 nM with Heterosigma Akashiwo [3] (setting [10]); 310 nM in [4] (setting [10]).
On the same counts, the results for `Clc1ccc(CNC2CCC2)cc1Cl` [Compound 46, Cyclobutyl-(3,4-dichloro-benzyl)-amine] are 15800 nM, 1130 nM, 3080 nM, 482 nM and 1670 nM.
On the same counts, the results for `Clc1ccc(CNC2CCCCCCC2)cc1Cl` [Compound 47, Cyclooctyl-(3,4-dichloro-benzyl)-amine] are 15000 nM, 500 nM, 1190 nM, 340 nM and 100 nM.
